Data taken from patent US20090035306A1 (KALYPSYS, INC., priority 2006, published 2009).

What was measured:
Mice [1] = assay: Glucose tolerance test (GTT), glucose disposal; assay type: in vivo, mouse; settings: 30 mg/kg, 2 g/kg dextrose orally at time 0, time 60 min
Mice [2] = assay: Glucose tolerance test (GTT), glucose disposal; assay type: in vivo, mouse; settings: 30 mg/kg
Experimental: Vehicle is CMC-Tween: 0.5% CMC+0.25% Tween 20 at an appropriate ml/kg. Dextrose dose per mouse=2 g dextrose/kg made from 0.5 g/ml stock dextrose solution. Compound 1 dose per mouse=30 mg/kg in CMC/Tween vehicle made from 4 mg/mL stock solution by adding 50 μL DMSO to 20 mg Compound 1, stirring to make a paste, adding 1 ml CMC/Tween with stirring, sonicating for 8 minutes on energy 05, and adjusting to 5 ml with CMC/Tween.
Glucose Tolerance Test (GTT)/Insulin Test
Mice (5 per group) were fasted at 6 am for an experiment at noon. Blood glucose was measured from tail nick blood using an Accucheck—Compact Monitoring Kit (Roche Diagnostics, Indianapolis Ind.). Baseline (time=−15 min) blood glucose concentration was determined for all mice and tail nick blood samples were collected. 2 g/kg dextrose (Hospira, Lake Forest, Ill.) was administered orally at time 0. Blood samples were collected from the following mice via tail nick blood draw (˜100 μL) into EDTA microtainer tubes at the following time points: −15, 0, 3, 6, 9, 12, 15, 20, 30 and 120 min. Terminal blood samples were collected from portal vein draws in three mice at t=20. Blood plasma was harvested from blood collected in EDTA microvettes by centrifugation (10 min at […]). Plasma was stored in −80 C freezer to be analyzed for other chemistry measurements.

human TGR5 = target: T1, human TGR5 (Homo sapiens, UniProt Q8TDU6); assay: cAMP production assay in HEK293 cells stably expressing TGR5 (LANCE TR-FRET); assay type: cell-based; settings: 30 minutes stimulation, read-out: cAMP Production in 293-TGR5 Cells EC50
T1 construct: expressed in transfected cells
T1 sequence (Q8TDU6 1-330): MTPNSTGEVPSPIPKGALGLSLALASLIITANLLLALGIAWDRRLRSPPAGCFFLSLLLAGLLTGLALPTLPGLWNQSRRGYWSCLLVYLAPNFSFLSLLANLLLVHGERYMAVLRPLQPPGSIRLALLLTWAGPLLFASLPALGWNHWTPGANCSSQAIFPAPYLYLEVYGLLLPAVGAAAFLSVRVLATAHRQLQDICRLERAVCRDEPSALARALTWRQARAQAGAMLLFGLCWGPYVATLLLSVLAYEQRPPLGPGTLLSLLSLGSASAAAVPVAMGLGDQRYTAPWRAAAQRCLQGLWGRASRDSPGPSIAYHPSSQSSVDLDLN
Outline: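 HEK293 cells stably transfected with human TGR5, incubated overnight in DMEM with 0.1% FBS, then given IBMX (1 mM final) and stimulated with compounds for 30 minutes. cAMP measured by LANCE TR-FRET after 1-7 h detection at room temperature. EC50 values reported as ≦10 μM (+) or >10 μM (−).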

O=c1c2ccccc2nc(-c2ccc(F)cc2)n1NCc1ccc(Br)cc1 [Example 1]
Plasma Glucose, Mean (Mice [1]): 294.2 mg/dL
Plasma Glucose, Mean (Mice [2]; 2 g/kg dextrose orally at time 0, time 0 min): 220.4 mg/dL
Plasma Glucose, Mean (Mice [2]; 2 g/kg dextrose orally at time 0, time 3 min): 272.2 mg/dL
Plasma Glucose, Mean (Mice [2]; 2 g/kg dextrose orally at time 0, time 6 min): 332.6 mg/dL
Plasma Glucose, Mean (Mice [2]; 2 g/kg dextrose orally at time 0, time 9 min): 398.2 mg/dL
Plasma Glucose, Mean (Mice [2]; 2 g/kg dextrose orally at time 0, time 12 min): 427.2 mg/dL
Plasma Glucose, Mean (Mice [2]; 2 g/kg dextrose orally at time 0, time 15 min): 430.0 mg/dL
Plasma Glucose, Mean (Mice [2]; 2 g/kg dextrose orally at time 0, time 20 min): 425.9 mg/dL
Plasma Glucose, Mean (Mice [2]; 2 g/kg dextrose orally at time 0, time 30 min): 354.6 mg/dL
Plasma Glucose, Mean (Mice [2]; 2 g/kg dextrose orally at time 0, time 120 min): 213.2 mg/dL
Plasma Glucose, Mean (Mice [2]; 2 g/kg dextrose orally at time 0, time −15 min (baseline)): 170.0 mg/dL
Plasma Glucose, AUC, Mean (Mice [2]; glucose tolerance test, 0-120 min): 16400
EC50 (human TGR5): ≤ 10 µM
